Results as given in patent US10487116B2, “Immunotherapy against several tumors, such as lung cancer, including NSCLC” (IMMATICS BIOTECHNOLOGIES GMBH, priority 2013, dated 2019).

Tests used:
[1] = system: colon carcinoma cells HCT-8; settings: Wang et al., 2009a; cited from earlier work
[2] = system: lung cancer cells NCI-H460; settings: Wang et al., 2009a; cited from earlier work
[3] = system: colon carcinoma cells HCT-15; settings: Wang et al., 2009a; cited from earlier work
HLA-DR2 = target: T1, HLA-DR2 (Homo sapiens, UniProt P01903+P01911); experiment: ProImmune REVEAL MHC-peptide binding assay; settings: compared to the positive control peptide, time 0
T1 construct: purchased ProImmune
Description: (§1) The ProImmune REVEAL® MHC-peptide binding assay determines the ability of each candidate peptide to bind to the selected HLA class II haplotype and stabilize the HLA-peptide complex. Thereby the candidate peptides are assembled in vitro with a particular HLA class II protein. The level of peptide incorporation into HLA molecules is measured by presence or absence of the native conformation of the assembled HLA-peptide complex at time 0 after completed refolding procedure (so called on-rate).
(§2) The binding capacity of candidate peptide to a particular HLA molecule is compared to the one with known very strong binding properties (positive control) resulting in the corresponding REVEAL® […] binding score. The positive control peptide is selected and provided by ProImmune based on their experience individually for each HLA haplotype.

CD4 T-cells = experiment: Intracellular cytokine staining (ICS) of CD4 T-cells in blood samples of vaccinated patients; assay type: in vivo, human; settings: vaccination with IMA950 peptides, 16 patients
Description: A conclusion on the immugenicity of a peptide based on its binding capacity to a HLA molecule can be made by comparing the binding score of this peptide to the one with known immunogenicity. Therefore, five well investigated peptides with determined immunogenicity were selected for this comparison. The immunogenicity of these peptides was determined ex vivo in blood samples of vaccinated patients using intracellular cytokine staining (ICS) CD4 T-cells.
In principle, ICS assays analyze the quality of specific T cells in terms of effector functions. Therefore, the peripheral mononuclear cells (PBMCs) were cultivated in vitro and subsequently restimulated by the peptide of interest, a reference peptide and a negative control (here MOCK).
Following the restimulated cells were stained for FN-gamma, TNF-alpha, IL-2 and IL-10 production, as well as expression of the co-stimulatory molecule CD154. The counting of affected cells was performed on a flow cytometer (FIG. 7).

HLA-DR5 = experiment: ProImmune REVEAL MHC-peptide binding assay; design: species or system human; settings: compared to the positive control peptide, time 0
Description: as §1, §2

HLA-DR7 = experiment: ProImmune REVEAL MHC-peptide binding assay; design: species or system human; settings: compared to the positive control peptide, time 0
Description: as §1, §2

HLA-DR1 = experiment: ProImmune REVEAL MHC-peptide binding assay; design: species or system human; settings: compared to the positive control peptide, time 0
Description: as §1, §2

HLA-DR4 = experiment: ProImmune REVEAL MHC-peptide binding assay; design: species or system human; settings: compared to the positive control peptide, time 0
Description: as §1, §2

HLA-DR3 = experiment: ProImmune REVEAL MHC-peptide binding assay; design: species or system human
Description: as §1, §2

HLA-DR6 = experiment: ProImmune REVEAL MHC-peptide binding assay; design: species or system human
Description: as §1, §2

HLA-DR haplotypes [4] = experiment: ProImmune REVEAL MHC-peptide binding assay, all investigated haplotypes; design: species or system human; settings: of 7 investigated HLA haplotypes
Text: The 7 investigated HLA-DR haplotypes are selected according to their frequencies in HLA-A*02 and HLA-A*24 positive North Americans population (Table 7.1 and 7.2)
as §1, §2

HLA-DR haplotypes [5] = experiment: Stability of the formed HLA-peptide complexes (REVEAL assay, 24 h at 37° C.); assay type: binding, human; settings: after 24 h at 37° C.; of 6 investigated HLA-peptide complexes
Description: Besides the affinity of a peptide to a particular HLA molecule, the enduring stability of the formed HLA-peptide complex is crucial for the occurrence of an immune response. Accordingly presence of the formed HLA-peptide complex is measured after its incubation for 24 h at 37° C. Consequently the stability of the formed MHC-peptide complex is calculated as a ration of the binding scores at 24 h and the binding scores which are received right after the refolding (accordingly at time 0) in percent.

T1 sequence (P01903 26-254): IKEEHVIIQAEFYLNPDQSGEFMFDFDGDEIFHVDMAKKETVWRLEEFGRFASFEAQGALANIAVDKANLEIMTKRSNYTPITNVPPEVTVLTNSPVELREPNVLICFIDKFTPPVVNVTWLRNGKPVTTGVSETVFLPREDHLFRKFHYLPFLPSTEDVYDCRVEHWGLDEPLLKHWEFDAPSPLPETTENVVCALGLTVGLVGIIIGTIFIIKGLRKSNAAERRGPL
T1 sequence (P01911 30-227 limits assumed): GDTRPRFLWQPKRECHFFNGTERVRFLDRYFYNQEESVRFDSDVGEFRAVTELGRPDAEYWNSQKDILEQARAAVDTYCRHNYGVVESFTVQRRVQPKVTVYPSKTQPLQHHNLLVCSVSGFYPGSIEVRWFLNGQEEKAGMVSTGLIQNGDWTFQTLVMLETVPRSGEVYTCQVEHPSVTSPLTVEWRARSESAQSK

Row | Molecule | Relative Binding Score HLA-DR2 (HLA-DR2) | Relative Binding Score HLA-DR5 (HLA-DR5) | Relative Binding Score HLA-DR7 (HLA-DR7) | Relative Binding Score HLA-DR1 (HLA-DR1) | Relative Binding Score HLA-DR4 (HLA-DR4) | binding to HLA-DR3 (HLA-DR3) | binding to HLA-DR6 (HLA-DR6) | HLA haplotypes with which a complex is formed (HLA-DR haplotypes [4]) | cytotoxicity [1] | cytotoxicity [2] | cytotoxicity [3] | immune response (CD4 T-cells) [%] | HLA-peptide complexes stable (HLA-DR haplotypes [5])
1 | CCCCCCCCCCCCCCOc1ccc(C(=O)O)o1 [TOFA, 5-tetradecyloxy-2-furoic acid] |  |  |  |  |  |  |  |  | cytotoxic | cytotoxic | cytotoxic |  | 
2 | INNYTPDMNREDVDYAIR (listed as Homo sapiens) [SEQ ID NO 76] | 2.43 | 0.04 | 0 | 0.04 | 0.74 | did not bind | did not bind | 4 |  |  |  |  | 2
3 | TNGVIHVVDKLLYPADT (listed as Homo sapiens) [SEQ ID NO 77] | 0.68 | 0.08 | 0.47 | 0.24 | 0.02 | did not bind | did not bind | 5 |  |  |  |  | 3

Second part, led by results:

Row | Relative Binding Score HLA-DR2 (HLA-DR2) | Relative Binding Score HLA-DR5 (HLA-DR5) | Relative Binding Score HLA-DR7 (HLA-DR7) | Relative Binding Score HLA-DR1 (HLA-DR1) | Relative Binding Score HLA-DR4 (HLA-DR4) | binding to HLA-DR3 (HLA-DR3) | binding to HLA-DR6 (HLA-DR6) | HLA haplotypes with which a complex is formed (HLA-DR haplotypes [4]) | Molecule | cytotoxicity [1] | cytotoxicity [2] | cytotoxicity [3] | immune response (CD4 T-cells) [%] | HLA-peptide complexes stable (HLA-DR haplotypes [5])
4 | 0.05 | 103.9 | 0.27 | 40.06 | 6.12 |  |  |  | BIR-002: class II peptide with known immunogenicity, IMA950 peptide (TLGEFLKLDRERAKN) [reference compound] |  |  |  | 100 | 
5 | 0.28 | 0.12 | 3.69 | 0.87 | 5.89 |  |  |  | MET-005: class II peptide with known immunogenicity, IMA950 peptide (TFSYVDPVITSISPKYG) [reference compound] |  |  |  | 100 | 
